Laboratory results reported in patent EP0931078B1, “NOVEL TRICYCLIC PIPERIDINYL COMPOUNDS USEFUL AS INHIBITORS OF FARNESYL-PROTEIN TRANSFERASE” (SCHERING CORPORATION, priority 1996, dated 1998).
Read-outs that look alike come from different tables or passages of the source.

Target: T1, partially purified rat brain famesyl protein transferase (FPT) (Rattus norvegicus, UniProt Q02293+Q04631)
T1 construct: partially purified rat brain famesyl protein transferase (FPT); from tissue; host or cells: rat brain
Test: In vitro enzyme assay: inhibition of Ras-CVLS farnesylation by farnesyl protein transferase (FPT)
Type: biochemical
Protocol: • 1. In vitro enzyme assays: FPT IC50 (inhibition of famesyl protein transferase, in vitro enzyme assay) are determined by the methods disclosed in […] or WO 95/10516. […] Cell-based assay. COS IC50 values refer to the COS cells activity inhibition of Ras processing, are determined by the methods disclosed in […] or WO 95/10516.

[1] = unit printed as uM (Examples 49-54)

T1 sequence (Q02293 whole entry, one chain of several): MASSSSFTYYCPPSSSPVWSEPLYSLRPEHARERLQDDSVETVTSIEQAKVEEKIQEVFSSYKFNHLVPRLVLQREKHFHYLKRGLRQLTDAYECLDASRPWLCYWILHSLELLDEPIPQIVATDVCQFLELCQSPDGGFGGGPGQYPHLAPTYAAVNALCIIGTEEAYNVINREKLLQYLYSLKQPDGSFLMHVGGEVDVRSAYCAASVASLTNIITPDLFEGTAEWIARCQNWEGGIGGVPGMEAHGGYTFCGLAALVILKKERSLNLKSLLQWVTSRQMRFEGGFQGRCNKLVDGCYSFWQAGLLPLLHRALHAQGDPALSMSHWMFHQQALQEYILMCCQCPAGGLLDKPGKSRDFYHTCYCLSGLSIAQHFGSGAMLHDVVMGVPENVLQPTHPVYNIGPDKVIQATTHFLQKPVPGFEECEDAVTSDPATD

IC50 [1] | SMILES | other results
– | O=C(CC1CCCN(C2c3ccc(Cl)cc3CCc3cc(Br)cnc32)C1)Nc1cccnc1 (stereo not shown) [Example 19, 1-(3-Bromo-8-chloro-6,11-dihydro-5H-benzo[5,6]cyclohepta[1,2-b]pyridin-11-yl)-N-(3-pyridinyl)-3-piperidineacetamide] | inhibition at 1.1 µM (read-out: FPT Inhibition): 15%
– | O=C(CC1CCN(C2c3ccc(Cl)cc3CCc3cc(Br)cnc32)CC1)NCc1cccnc1 (stereo not shown) [Example 43, 1-(3-Bromo-8-chloro-6,11-dihydro-5H-benzo[5,6]cyclohepta[1,2-b]pyridin-11-yl)-N-(3-pyridylmethyl)-4-piperidineacetamide] | inhibition at 0.22 µM (read-out: FPT INH): 43%
– | O=C(CCC1CCN(C2c3ccc(Cl)cc3CCc3cc(Br)cnc32)CC1)NCc1cccnc1 (stereo not shown) [Example 44, 1-(3-Bromo-8-chloro-6,11-dihydro-5H-benzo[5,6]cyclohepta[1,2-b]pyridin-11-yl)-N-(3-pyridylmethyl)-4-piperidinepropanamide] | inhibition at 0.35 µM (read-out: FPT INH): 39%
– | O=C(CC1CCN(C2c3ncc(Br)cc3CCc3cc(Cl)cc(Br)c32)CC1)NCc1cccnc1 (stereo not shown) [Example 45, 1-(8-Chloro-3,10-dibromo-6,11-dihydro-5H-benzo[5,6]cycloheptal[1,2-b]pyridin-11-yl)-N-(3-pyridylmethyl)-4-piperidineacetamide] | IC50: 0.042 µM
0.58 µM | O=C(NC1CC1)[C@@H]1CCCN(C2c3ncc(Br)cc3CCc3cc(Cl)cc(Br)c32)C1 (stereo partly shown) [Example 49, N-cyclopropyl-1-(3,10-dibromo-8-chloro-6,11-dihydro-5H-benzo[5,6]cyclohepta[1,2-b]pyridin-11-yl)-3-piperidinecarboxamide] | –
0.96 µM | CNC(=O)[C@@H]1CCCN(C2c3ncc(Br)cc3CCc3cc(Cl)cc(Br)c32)C1 (stereo partly shown) [Example 50, 1-(3,10-Dibromo-8-chloro-6,11-dihydro-5H-benzo[5,6]cyclohepta[1,2-b]pyridin-11-yl)-N-methyl-3-piperidinecarboxamide] | –
0.081 µM | O=C(NCCc1cccnc1)[C@@H]1CCCN(C2c3ncc(Br)cc3CCc3cc(Cl)cc(Br)c32)C1 (stereo partly shown) [Example 52, 1-(3,10-Dibrorno-8-chforo-6,11-dihydro-5H-benzo[5,6]cyclohepta[1,2-b]pyridin-11-yl)-N-[2-(3-pyridinyl)ethyl]-3-piperidinecarboxamide] | –
0.11 µM | CN(C)CC(=O)N1CCC(CNC(=O)[C@@H]2CCCN(C3c4ncc(Br)cc4CCc4cc(Cl)cc(Br)c43)C2)CC1 (stereo partly shown) [Example 53, 1-(3,10-Dibromo-8-chloro-6,11-dihydro-5H-benzo[5,6]cyclohepta[1,2-b]pyridin-11-yl)-N-[[1-[(dimethylamino)acetyl]-4-piperidinyl]methyl]-3-piperidinecarboxamide] | –
0.1 µM | O=C(NCCCN1CCCC1=O)C1CCCN(C2c3ncc(Br)cc3CCc3cc(Cl)cc(Br)c32)C1 (stereo not shown) [Example 54, 1-(3,10-Dibromo-8-chloro-6,11-dihydro-5H-benzo[5,6]cyclohepta[1,2-b]pyridin-11-yl)-N-[3-(2-oxo-1-pyrrolidinyl)propyl]-3-piperidinecarboxamide] | –
– | O=C(NCc1cccnc1)C1CCCCN1C1c2ncc(Br)cc2CCc2cc(Cl)cc(Br)c21 (stereo not drawn) [Isomer C3 amide] | IC50: 0.3 µM
